Laboratory results published in US10167507B2, “Metabolic diseases-related odorant receptor genes and use thereof” (INDUSTRY-ACADEMIC COOPERATION FOUNDATION, YONSEI UNIVERSITY, priority 2010, dated 2019).
Each block holds one compound with its values, some of them ahead of it.

How the values were obtained:
[1] = tested on: olfactory receptors in visceral fat tissue; test: OligoDNA microarray, visceral fat tissue of HFD mice fed odor components; assay type: in vivo, mouse
Protocol: DNA microarry analysis using RNAs of visceral fat and liver tissue was conducted by GENOCHECK (CO., LTD.). RNA samples were pooled from 10 mice in each experimental group and subjected to microarray experiments in triplicate for the test of reproducibility. NimbleGen Mouse Whole Oligo 12-plex chip used in this experiment was prepared by triplicating 42,576 genes using Mouse Genome Build 8 as database. In NimbleGen mouse Whole Oligo 12-plex chip, 137,090 spots excluded control group gene were spotted by 16 μm×16 μm size in 17.4 mm×13 mm size. 42,576 oligo included 137,145 genes which are known their functions and 5,431 transcripts and EST sequences which are unknown their functions. 10-50 μg of total RNA was added in oligo-dT primer, reverse transcriptase, dNTP, Cy3-dUTP and Cy5-dUTP, and reverse-transcripted according to the kit manufacturer's recommendations. The resultant was purified using cartridge, dried and dissolved in hybridization buffer solution (30 μL). The microarray was placed in hybridization cassette, heated at 95-100° C. for 5 min, mixed independently to each of RNA labeled with Cy3 and Cy5, and hybridized at 45° C. for 18 hrs. The slide was washed twice in solution containing 1×SSC and 0.1% SDS for 5 min, washed in 1×SSC for 5 min and dried to analyze.

[2] = tested on: olfactory receptors in liver tissue; test: OligoDNA microarray, liver tissue of HFD mice fed odor components; assay type: in vivo, mouse
Excerpt: (§1) The obesity-inducing control diet used in the test was high-fat diet (HFD: 40% fat calorie, 17 g lard+3% corn oil/100 g diet). Diets supplemented with an odor component had the same composition as HFD, except that each of various types of odor components (indol-3-carbinol, oleuropein, cedryl acetate, α-cedrene and piperine) having anti-obesity efficacy was contained in 0.02-0.05% concentration. Indo)-3-carbinol, oleuropein, cedryl acetate, a-cedrene and piperine were purchased from Sigma-Aldrich.
(§2) After adding Trizol agent to visceral fat or liver tissue, the mixture was homogenized and centrifuged at 12,000×g for 10 min at 4° C. The supernatant was transferred to a new tube to remove fat layer. Then, 200 μl of chloroform was added to the tube, followed by vortexing. The same procedure was repeated twice and then the supernatant was transferred to a new tube, followed by addition of isopropanol and the supernatant at 1:1 ratio. The mixture was vigorously shaken 10 times and then incubated for 10 min at room temperature, followed by centrifugation at 12,000×g for 10 min at 4° C. to remove the supernatant. After adding 1 mL of 70% ethanol to the remaining pellet, it was centrifuged at 7,500×g for 5 min at 4° C. After removing the ethanol, the RNA pellet contained in the tube was dried for 5 min at 4° C. and dissolved in nuclease-free water. The RNA sample concentration was measured at a wavelength of 260 nm and 280 nm using a UV/VIS spectrophotometer (Beckman coulter, DU730) and the integrity of RNA sample was verified by agarose gel electrophoresis.
(§3) DNA microarry analysis using RNAs of visceral fat and liver tissue was conducted by GENOCHECK (CO., LTD.). RNA samples were pooled from 10 mice in each experimental group and subjected to microarray experiments in triplicate for the test of reproducibility. NimbleGen Mouse Whole Oligo 12-plex chip used in this experiment was prepared by triplicating 42,576 genes using Mouse Genome Build 8 as database. In NimbleGen mouse Whole Oligo 12-plex chip, 137,090 spots excluded control group gene were spotted by 16 μm×16 μm size in 17.4 mm×13 mm size. 42,576 oligo included […] genes which are known their functions and 5,431 transcripts and EST sequences which are unknown their functions. 10-50 μg of total RNA was added in oligo-dT primer, reverse transcriptase, dNTP, Cy3-dUTP and Cy5-dUTP, and reverse-transcripted according to the kit manufacturer's recommendations. The resultant was purified using cartridge, dried and dissolved in hybridization buffer solution (30 μL). The microarray was placed in hybridization cassette, heated at 95-100° C. for 5 min, mixed independently to each of RNA labeled with Cy3 and Cy5, and hybridized at 45° C. for 18 hrs. The slide was washed twice in solution containing 1×SSC and 0.1% SDS for 5 min, washed in 1×SSC for 5 min and dried to analyze.
(§4) The profile for olfactory receptors in which the expression was regulated by more than 2-fold change due to intake of odor components at each tissue was shown in Tables 5. As a result, it was determined that various types of odor components having anti-obesity efficacy regulated a plurality of olfactory receptors in peripheral tissues.

[3] = tested on: obesity and metabolic diseases-related genes in visceral fat tissue; test: RT-PCR of obesity and metabolic diseases-related genes, visceral fat tissue; assay type: in vivo, mouse; settings: odor component-supplemented group to the HFD control group
Protocol: After adding 1 mL of Trizol agent (Invitrogen, USA) per 0.1 g of visceral fat or liver tissues, the mixture was homogenized and centrifuged at 12,000×g for 10 min at 4° C. The supernatant was transferred to a new tube and 200 μl of chloroform was added to the tube, followed by vortexing. The same procedure was repeated twice and then the supernatant was transferred to a new tube, followed by addition of isopropanol and the supernatant at 1:1 ratio. The mixture was vigorously shaken 10 times and then incubated for 10 min at room temperature, followed by centrifugation at 12,000×g for 10 min at 4° C. to remove the supernatant. After adding 1 mL of 70% ethanol to the remaining pellet, it was centrifuged at 7,500×g for 5 min at 4° C. After removing the ethanol, the RNA pellet contained in the tube was dried for 5 min at 4° C. and dissolved in nuclease-free water. The RNA sample concentration was measured at a wavelength of 260 nm and 280 nm using a UV/VIS spectrophotometer (Beckman coulter, DU730) and the integrity of RNA sample was verified by agarose gel electrophoresis. The RNA sample obtained from the visceral fat or liver tissues was trasnscribed using oligo dT primer and reverse transcriptase (GIBCO BRL, Gaithersburg, Md., USA) to synthesize cDNA. The PCR amplification was performed using the cDNA as templates and primers complementary to cDNA [NT] flanking sequence. 1 μl of the amplified products were resolved on agarose gel electrophoresis to verify DNA band.

[4] = tested on: HSL (hormone sensitive lipase); test: Western blotting, protein phosphorylation of HSL; assay type: in vivo, mouse
Protocol: (§5) A certain amount of visceral fat or liver tissues in mortar was homogenized with liquid nitrogen and cell lysis buffer. The mixture was transferred to a new tube, followed by vortexing. After centrifugation at 13,000×g for 20 min at 4° C., the middle layer of the tube was obtained and proteins were quantified by Bradford method. 50 μg of protein was electrophorized to SDS polyacrylamide gel, followed by electroblotting to PVDF hyper film. The protein was reacted using an appropriate antibody for the protein and detected by ECL, whereby insulin resistance, adipocyte differentiation, lipid metabolism or energy consumption-related mechanism of phytochemical components was investigated in the protein level.
(§6) In order to verify this, protein phosphorylations of HSL (hormone sensitive lipase), CREB (cAMP-responsive element binding protein) and AKT (v-akt murine thymoma viral oncogene) were evaluated by western blotting analysis.

[5] = tested on: CREB (cAMP-responsive element binding protein); test: Western blotting, protein phosphorylation of CREB; assay type: in vivo, mouse
Protocol: as §5, §6

[6] = tested on: AKT (v-akt murine thymoma viral oncogene); test: Western blotting, protein phosphorylation of AKT; assay type: in vivo, mouse
Protocol: as §5, §6

[7] = tested on: olfactory receptors in visceral fat and liver tissues; test: OligoDNA microarray, visceral fat and liver tissues of HFD mice fed odor components (tissue not separated in text); assay type: in vivo; settings: supplemented to mouse fed high-fat diet for 10 weeks
Excerpt: as §1, §2, §3, §4

[8] = supplemented to HFD-fed mouse 10 weeks
[9] = odor component-supplemented group to the HFD control group
[10] = western blotting, compared to the HFD control group

- Olfr380 expression fold change to HFD group [1, 8]: 2.20
- Olfr909 expression fold change to HFD group [1, 8]: 3.45
- Olfr972 expression fold change to HFD group [1, 8]: 0.43
- Olfr1093 expression fold change to HFD group [1, 8]: 0.42
- Olfr1165 expression fold change to HFD group [1, 8]: 0.39
- Olfr1462 expression fold change to HFD group [1, 8]: 2.26
- Olfr16 expression fold change to HFD group [2, 8]: 0.47
- Olfr116 expression fold change to HFD group [2, 8]: 2.12
- Olfr178 expression fold change to HFD group [2, 8]: 2.06
- Olfr196 expression fold change to HFD group [2, 8]: 0.45
- Olfr259 expression fold change to HFD group [2, 8]: 0.50
- Olfr290 expression fold change to HFD group [2, 8]: 2.11
- Olfr466 expression fold change to HFD group [2, 8]: 0.49
- Olfr686 expression fold change to HFD group [2, 8]: 0.35
- Olfr1045 expression fold change to HFD group [2, 8]: 0.45
- Olfr1153 expression fold change to HFD group [2, 8]: 2.82
- Olfr1216 expression fold change to HFD group [2, 8]: 0.41
- Olfr1329 expression fold change to HFD group [2, 8]: 0.48
- Olfr1337 expression fold change to HFD group [2, 8]: 0.49
Compound: OCc1c[nH]c2ccccc12 [Indole-3 carbinol]

Compound: CC(=O)O[C@]1(C)CC[C@@]23C[C@@H]1C(C)(C)[C@@H]2CC[C@H]3C [cedryl acetate]
- expression of olfactory receptor 290 [1]: increased
- expression of olfactory receptor 341 [1]: decreased
- expression of olfactory receptor 380 [1]: increased
- expression of olfactory receptor 1104 [1]: increased
- expression of olfactory receptor 1165 [1]: decreased
- Olfr290 expression fold change to HFD group [1, 8]: 2.40
- Olfr341 expression fold change to HFD group [1, 8]: 0.32
- Olfr380 expression fold change to HFD group [1, 8]: 2.14
- Olfr417 expression fold change to HFD group [1, 8]: 0.42
- Olfr618 expression fold change to HFD group [1, 8]: 0.43
- Olfr663 expression fold change to HFD group [1, 8]: 2.04
- Olfr1058 expression fold change to HFD group [1, 8]: 2.18
- Olfr1104 expression fold change to HFD group [1, 8]: 3.22
- Olfr1123 expression fold change to HFD group [1, 8]: 2.64
- Olfr1125 expression fold change to HFD group [1, 8]: 2.07
- Olfr1136 expression fold change to HFD group [1, 8]: 0.43
- Olfr1157 expression fold change to HFD group [1, 8]: 0.46
- Olfr1165 expression fold change to HFD group [1, 8]: 0.36
- Olfr1442 expression fold change to HFD group [1, 8]: 2.18
- C/EBPα gene expression, decrease (change rate) [3]: 36% decrease
- CPT1 gene expression, increase (change rate) [3]: 47% increase^
- FAS gene expression, decrease (change rate) [3]: 43% decrease
- IL-6 gene expression, decrease (change rate) [3]: 74% decrease
- PGC1α gene expression, increase (change rate) [3]: 57% increase^
- PPARγ2 gene expression, decrease (change rate) [3]: 25% decrease
- SIRT1 gene expression, increase (change rate) [3]: 650% increase ^
- TNFα gene expression, decrease (change rate) [3]: 99% decrease
- UCP1 gene expression, increase (change rate) [3]: 899% increase ^
- UCP3 gene expression, increase (change rate) [3]: 65% increase^
- aP2 gene expression, decrease (change rate) [3]: 33% decrease
- HSL phosphorylation, increase (change rate) [4, 9]: 46% increase
- phosphorylation of HSL [4, 10]: significantly increased
- CREB phosphorylation, increase (change rate) [5, 9]: 39% increase
- phosphorylation of CREB [5, 10]: significantly increased
- AKT phosphorylation, increase (change rate) [6, 9]: 33% increase
- phosphorylation of AKT [6, 10]: significantly increased
- expression of olfactory receptor 38 [2]: increased
- expression of olfactory receptor 77 [2]: decreased
- expression of olfactory receptor 275 [2]: increased
- expression of olfactory receptor 878 [2]: increased
- Olfr38 expression fold change to HFD group [2, 8]: 2.39
- Olfr77 expression fold change to HFD group [2, 8]: 0.5
- Olfr275 expression fold change to HFD group [2, 8]: 2.64
- Olfr305 expression fold change to HFD group [2, 8]: 2.21
- Olfr878 expression fold change to HFD group [2, 8]: 2.76
- Olfr77 expression fold change to HFD group ([2]; supplemented to HFD-fed mouse 10 weeks, listed as Cedryl acetate): 0.50
- expression of olfactory receptor 38 increased [7]: more than 2 fold change
- expression of olfactory receptor 77 decreased [7]: more than 2 fold change
- expression of olfactory receptor 275 increased [7]: more than 2 fold change
- expression of olfactory receptor 290 increased [7]: more than 2 fold change
- expression of olfactory receptor 305 increased [7]: more than 2 fold change
- expression of olfactory receptor 341 decreased [7]: more than 2 fold change
- expression of olfactory receptor 380 increased [7]: more than 2 fold change
- expression of olfactory receptor 417 decreased [7]: more than 2 fold change
- expression of olfactory receptor 618 decreased [7]: more than 2 fold change
- expression of olfactory receptor 663 increased [7]: more than 2 fold change
- expression of olfactory receptor 878 increased [7]: more than 2 fold change
- expression of olfactory receptor 1058 increased [7]: more than 2 fold change
- expression of olfactory receptor 1104 increased [7]: more than 2 fold change
- expression of olfactory receptor 1123 increased [7]: more than 2 fold change
- expression of olfactory receptor 1125 increased [7]: more than 2 fold change
- expression of olfactory receptor 1136 decreased [7]: more than 2 fold change
- expression of olfactory receptor 1157 decreased [7]: more than 2 fold change
- expression of olfactory receptor 1165 decreased [7]: more than 2 fold change
- expression of olfactory receptor 1442 increased [7]: more than 2 fold change

- expression of olfactory receptor 38 [2]: increased
- expression of olfactory receptor 878 [2]: increased
- expression of olfactory receptor 1045 [2]: decreased
- Olfr38 expression fold change to HFD group [2, 8]: 3.83
- Olfr878 expression fold change to HFD group [2, 8]: 5.87
- Olfr1045 expression fold change to HFD group [2, 8]: 0.43
- Olfr1222 expression fold change to HFD group [2, 8]: 2.15
- expression of olfactory receptor 38 increased [7]: more than 2 fold change
- expression of olfactory receptor 878 increased [7]: more than 2 fold change
- expression of olfactory receptor 1045 decreased [7]: more than 2 fold change
- expression of olfactory receptor 1222 increased [7]: more than 2 fold change
Compound: CC1=CC[C@@]23C[C@@H]1C(C)(C)[C@@H]2CC[C@H]3C [α-cedrene]
